Values quoted from earlier work as cited in PMC5600712 (ACS chemical biology, 2017).

Key:
[1] = test system: proteasome; conditions: α,β-epoxyketone proteasome inhibitor
[2] = test system: class I HDACs; conditions: class I compared with class II HDACs

Row | Molecule | covalent adduct formation with proteasome [1] | selectivity of binding, class I versus class II HDACs [2]
1 | CC(C)C[C@H](NC(=O)[C@H](CCc1ccccc1)NC(=O)CN1CCOCC1)C(=O)N[C@@H](Cc1ccccc1)C(=O)N[C@@H](CC(C)C)C(=O)[C@@]1(C)CO1 [carfilzomib] | forms a covalent adduct to block proteasome function | 
2 | HC toxin |  | tighter binding of these inhibitors to class I HDACs
